Measured values as given in patent publication US8883798B2, “Pyrimidine compounds inhibiting the formation of nitric oxide and prostaglandin E2, method of production thereof and use thereof” (Ustav Organicke Chemie a Biochemie Akademie Ved CR, V.V.I., priority 2011, dated 2014).

What was measured:
[1] = test system: production of nitric oxide (NO); assay: Production of nitric oxide (NO) in cultures of mouse peritoneal cells stimulated with IFN-γ plus LPS (Griess reagent); type: cell-based, mice; conditions: Table 3A; substance 50 μmol·l^−1; IFN-g plus LPS; 24 h
Procedure, shortened: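 C57BL/6 mouse peritoneal cells (2×10^6/mL) stimulated with IFN-γ (5000 pg/mL) plus LPS (100 pg/mL), compounds at 50 μmol·l^−1. Nitrite measured by Griess reagent after 24 h, expressed as % of stimulated control (set 100%); IC50 is concentration reducing NO by 50%.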

[2] = test system: Salmonella typhimurium TA 98 and TA 100, Escherichia coli WP2 uvrA; conditions: all strains, all tested concentrations, with and without metabolic activation
Protocol: With compound 28, its possible mutagenicity (genotoxicity) was assessed using the standard bacterial reverse mutation test. According to Council Regulation (ES) No. 440/2008, stipulating the test methods according to the European Parliament and Council regulation (ES), the method used was B.13/14, Mutagenicity—Reverse Mutation Test Using Bacteria, which is described in the same way also in the OECD Test Guideline No. 471.
[…] The experiments were conducted without using metabolic activation and after activation with supernatant S9 from […] livers and with mixtures of cofactors (NADP and glucoso-6-phosphate) to determine the mutagenicity of the metabolic products of the compound tested. Supernatant S9 was prepared according to the literature [Mutat. Res. 113, 173-215, 1983].
The principle of the test is to detect possible revertants created by reverse mutation, which would be induced in the bacterial culture by the tested compound. Specially constructed bacterial strains are used, carrying mutations in the place for his (trp), which are not capable of forming colonies on the minimum plates without histidine or tryptophan. […] Mutagenic potential is given by the growing number of revertants in the influenced groups in comparison with a negative control, and/or in dependence on the growing number of revertants on the dose of the tested compound.
Bacterial testers, types Salmonella typhimurium TA 98 (CCM 3811) and Escherichia coli WP2 uvrA (CCM 4751), were acquired from the Czech Collection of Microorganisms of Masaryk University, Brno and the strain Salmonella typhimurium TA100 (CIP 103796, lot No. 1008) from the Biological Resource Center, Institut Pasteur in Paris (CRBIP).

[3] = test system: acute experimental colitis in mice; assay: Acute experimental colitis induced in mice by dextran sulphate sodium; type: in vivo, mice BALB/c; conditions: for Therapeutical effect compared with 6-TG: acute colitis, approximately 10 mg/kg; for Course of induced acute experimental colitis: approximately 10 mg/kg by stomach probe for seven days; for Protection from severe forms of acute experimental colitis: daily oral doses of 2.5 mg/kg or 10 mg/kg
Protocol: The compounds tested were dissolved in 0.5% methylcellulose (MC, Bio-test s.r.o., Konárovice, Czech Republic; Lot: 050510BT) to acquire a final concentration of 2 mg/ml (ca 10 mg/kg). To achieve homogeneity of the suspensions, the substances in MC were disintegrated by ultrasound (sonicated; 20 s, λ=0.1 μm). Fresh suspensions were prepared every day.
The female mice of strain BALB/c at 13 weeks old were acquired from the breeding of the Institute of Physiology of the ASCR, v.v.i. Colitis was induced in them by administering a 3% solution (weight/volume) of sodium dextran sulphate (DSS, mol. weight 36-50 kDa; MP Biomedicals, Inc.) in drinking water for a period of seven days [Gastroenterology 98, 694-7, 1990]. Beginning on Day 1 of DSS administration, also a dose of the tested compound, dissolved in 100 μl MC (only a dose of methylcellulose in the case of the control animals), was administered for seven days by stomach probe.
The severity of the colitis was assessed on the last day of the experiment by scoring the clinical activity, histological parameters and measuring the length of the intestine.
The entire intestine was removed post mortem, without tightening it was placed on a ruler and measured. Shortening of the intestine is an indirect marker of infection (the shorter the intestine, the more serious the infection).
The points of the clinical activity are the sum of the individual assessments from 0 to 4 and were calculated using the following parameters: reduction of body weight (none=0 points, reduction by 1 to 5%=1 point, by 5-10%=2 points, by 10-20%=3 points, by 20%=4 points), consistency of the feces (solid=0 points; not solid, but not sticking to the anus=2 points; liquid, sticking to the anus=4 points) and bleeding (none=0 points, positive Guajak reaction=2 body, strong bleeding=4 points). This point assessment was totaled and divided by three to acquire the overall index of the activity of the disease, which was in a range from 0.0 (a healthy individual) to 4.0 (maximum activity of colitis) as described by Cooper et al. [Lab. Invest. 69, 238-49, 1993].
The descending colon was fixed in a buffered solution of 4% formaldehyde and poured into paraffin for the histological assessment. The sections were stained in hematoxylin/eosin. For every sample, four cross cuts were tested, which had been separated from one another by sections of a length of […]. The histological assessment was made for every cut by two pathologists in blind order, which provided an assessment combining the level of the infiltration of leukocytes into the layer of the lamia propria and into the submucosa along with the extent of the damage of the mucous membrane (see Table 1). The overall assessment is the average of the evaluation of the four sections, which was in a range from 0 (no signs of colitis) to 3 (severe colitis).
The differences in the intestinal length, DAI (disease activity index) and histological assessment of multiple groups were compared with the control group (MC/DSS) using a one-way analysis of the differences with a Dunnett test of multiple comparison. The differences were considered as statistically significant at P<0.05.
Compounds 28 and 51 were suspended in 0.5% methylcellulose (MC, Bio-test s.r.o., Konárovice, Czech Republic, Lot: 050510BT) to a concentration of 2 mg/ml (approximately 10 mg/kg). Sterile 0.5% MC was used as a placebo and a dose of 40 mg/each administration of 6-thioguanine (6TG) in 0.5% MC as a positive control. The administered suspensions were prepared freshly […].

Row | Structure (SMILES) | Production of nitric oxide in % of the controls [1] | Mutagenicity (reverse mutation) [2] | Therapeutical effect compared with 6-TG [3] | Course of induced acute experimental colitis [3] | Protection from severe forms of acute experimental colitis [3]
1 | CCCCc1c(Cl)nc(N)nc1Cl [Substance 28] | 53.23 ± 5.79 % of the controls | non-mutagenous | minimally equal with the effect of 6-TG | statistically significant reduction of the course of the induced (severe form) experimental colitis | protect mice from the severe forms of acute experimental colitis
2 | CCCCc1c(Cl)nc(NC=O)nc1Cl [Substance 51] | 8.37 ± 2.77 % of the controls | non-mutagenous | minimally equal with the effect of 6-TG | statistically significant reduction of the course of the induced (severe form) experimental colitis | protect mice from the severe forms of acute experimental colitis
